Test results reported in PMC9386255, “Specialized acyl carrier protein used by serine palmitoyltransferase to synthesize sphingolipids in Rhodobacteria” (Frontiers in Microbiology, 2022).

Columns and labels:
Type in all cases: biochemical
[1] = target: T1, FadDSm, acyl-CoA synthetase FadD from S. meliloti 1021 (Sinorhizobium meliloti, UniProt Q7APF7); experiment: [3H]palmitoyl-CoA formation, heptane extraction, scintillation counting; settings: 10 mM ATP, 10 mM MgSO4, 1 mM Triton X-100, pH 8.0, 37 C, 40 uM CoA
T1 construct: full length, His6-tagged (pET28a, pECH3), E. coli BL21(DE3) pLysS host, IMAC-purified, tag kept

[2] = target: T2, SPTCc (CC_1162), serine palmitoyltransferase (Caulobacter vibrioides, UniProt Q9A932); experiment: L-[…]serine incorporation into 3-oxo-sphinganine, TLC autoradiography, empty-vector control; settings: 10 uM palmitoyl-CoA, 432 uM L-[14C]serine, 10 uM pyridoxal phosphate, pH 7.5, 30 C; minor product
T2 construct: full length, expressed from pET9a (pJPG08) in E. coli BL21(DE3) pLysS, cell-free extract
T2 sequence (Q9A932 1-404): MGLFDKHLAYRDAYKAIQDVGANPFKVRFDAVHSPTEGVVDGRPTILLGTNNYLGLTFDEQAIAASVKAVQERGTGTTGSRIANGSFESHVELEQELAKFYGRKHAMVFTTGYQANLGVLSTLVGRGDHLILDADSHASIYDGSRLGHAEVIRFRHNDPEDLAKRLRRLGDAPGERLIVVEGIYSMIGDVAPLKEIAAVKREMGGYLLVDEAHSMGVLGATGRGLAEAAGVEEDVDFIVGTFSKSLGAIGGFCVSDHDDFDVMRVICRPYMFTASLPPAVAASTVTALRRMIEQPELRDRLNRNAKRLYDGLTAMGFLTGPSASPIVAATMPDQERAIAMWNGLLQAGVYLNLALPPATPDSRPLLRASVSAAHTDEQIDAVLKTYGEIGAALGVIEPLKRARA

[3] = target: T3, SPTEc (ECD_02854), serine palmitoyltransferase (Escherichia coli, UniProt B1LEF2); experiment: as above; settings: 10 uM palmitoyl-CoA, 432 uM L-[14C]serine, 10 uM pyridoxal phosphate, pH 7.5, 30 C; minor product
T3 construct: gene EcSMS35_3263; full length, expressed from pET9a (pJPG01) in E. coli BL21(DE3) pLysS, cell-free extract
T3 sequence (B1LEF2 1-390): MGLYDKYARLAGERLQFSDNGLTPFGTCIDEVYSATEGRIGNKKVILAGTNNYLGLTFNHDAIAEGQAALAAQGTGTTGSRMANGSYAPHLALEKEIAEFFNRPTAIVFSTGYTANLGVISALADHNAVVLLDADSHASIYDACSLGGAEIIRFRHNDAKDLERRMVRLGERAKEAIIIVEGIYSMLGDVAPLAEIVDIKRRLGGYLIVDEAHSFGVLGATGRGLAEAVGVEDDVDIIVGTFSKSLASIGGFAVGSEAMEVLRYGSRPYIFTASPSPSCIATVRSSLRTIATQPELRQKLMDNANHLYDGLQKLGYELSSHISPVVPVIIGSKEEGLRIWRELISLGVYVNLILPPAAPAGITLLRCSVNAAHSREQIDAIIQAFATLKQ

[4] = target: T4, SPTSw (Swit_3900), serine palmitoyltransferase (Rhizorhabdus wittichii, UniProt A0A9J9HEF8); experiment: as above; settings: 10 uM palmitoyl-CoA, 432 uM L-[14C]serine, 10 uM pyridoxal phosphate, pH 7.5, 30 C; minor product
T4 construct: full length, expressed from pET9a (pJPG02) in E. coli BL21(DE3) pLysS, cell-free extract
T4 sequence (A0A9J9HEF8 1-400): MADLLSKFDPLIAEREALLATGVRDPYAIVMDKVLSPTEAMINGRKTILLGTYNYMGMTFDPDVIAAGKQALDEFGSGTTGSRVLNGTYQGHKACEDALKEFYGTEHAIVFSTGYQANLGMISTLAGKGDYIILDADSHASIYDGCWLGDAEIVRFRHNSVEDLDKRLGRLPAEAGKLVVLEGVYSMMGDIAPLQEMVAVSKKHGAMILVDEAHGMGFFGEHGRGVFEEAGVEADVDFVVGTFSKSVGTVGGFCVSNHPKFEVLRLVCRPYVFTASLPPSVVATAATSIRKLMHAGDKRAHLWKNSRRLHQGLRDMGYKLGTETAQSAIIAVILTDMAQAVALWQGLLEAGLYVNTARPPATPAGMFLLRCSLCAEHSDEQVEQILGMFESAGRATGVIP

T1 sequence (Q7APF7 entry or part of it): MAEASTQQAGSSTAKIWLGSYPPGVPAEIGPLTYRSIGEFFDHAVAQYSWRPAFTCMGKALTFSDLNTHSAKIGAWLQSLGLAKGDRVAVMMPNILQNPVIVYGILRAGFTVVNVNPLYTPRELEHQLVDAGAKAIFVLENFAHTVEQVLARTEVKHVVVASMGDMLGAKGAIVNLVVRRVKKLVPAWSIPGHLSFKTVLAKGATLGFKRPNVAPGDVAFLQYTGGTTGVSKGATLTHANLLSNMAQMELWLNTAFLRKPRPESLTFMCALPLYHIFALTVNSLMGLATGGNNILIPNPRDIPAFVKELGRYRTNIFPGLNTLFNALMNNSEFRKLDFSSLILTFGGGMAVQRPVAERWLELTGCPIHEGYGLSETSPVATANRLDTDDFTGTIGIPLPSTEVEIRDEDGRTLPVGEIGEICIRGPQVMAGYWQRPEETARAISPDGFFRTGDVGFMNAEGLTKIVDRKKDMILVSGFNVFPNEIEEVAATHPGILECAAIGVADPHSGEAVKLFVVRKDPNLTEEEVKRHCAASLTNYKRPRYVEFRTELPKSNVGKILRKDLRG

SMILES: CC(C)(COP(=O)(O)OP(=O)(O)OC[C@H]1O[C@@H](n2cnc3c(N)ncnc32)[C@H](O)[C@@H]1OP(=O)(O)O)[C@@H](O)C(=O)NCCC(=O)NCCS [CoA]
- [3H]palmitoyl-CoA formation, heptane extraction, scintillation counting ([1]; 200 uM [3H]palmitate): acyl-CoA synthetase FadD is able to form acyl-CoA

SMILES: CCCCCCCCCCCCCCCC(=O)O [palmitate]
- [3H]palmitoyl-CoA formation, heptane extraction, scintillation counting ([1]; 200 uM palmitate, labelled compound): Using FadDSm in the acylation assay resulted in an increase in the amount of acyl-CoA

SMILES: CCCCCCCCCCCCCCCC(=O)SCCNC(=O)CCNC(=O)[C@H](O)C(C)(C)COP(=O)(O)OP(=O)(O)OC[C@H]1O[C@@H](n2cnc3c(N)ncnc32)[C@H](O)[C@@H]1OP(=O)(O)O [palmitoyl-CoA]
- L-[14C]serine incorporation into 3-oxo-sphinganine, TLC autoradiography, empty-v [2]: using the SPTs from C. crescentus, E. coli BL21(DE3) or S. wittichii, and palmitoyl-CoA as thioester
- L-[14C]serine incorporation into 3-oxo-sphinganine, TLC autoradiography, empty-v [3]: using the SPTs from C. crescentus, E. coli BL21(DE3) or S. wittichii, and palmitoyl-CoA as thioester
- L-[14C]serine incorporation into 3-oxo-sphinganine, TLC autoradiography, empty-v [4]: using the SPTs from C. crescentus, E. coli BL21(DE3) or S. wittichii, and palmitoyl-CoA as thioester
